Experiment [1] concerns the target CcapOBP83a-2 (Ceratitis capitata, UniProt W8W3U3). The experiment can be described thus: biochemical. Conditions: for Ki: read-out: Ki (dissociation constant); for IC50: read-out: IC50 (concentration of ligand halving the initial fluorescence level). In kind it is binding. On the procedure:
The 1-NPN/protein mixture was excited at 337 nm and the emission was recorded between 380 and 450 nm on a Perkin Elmer LS 55 Fluorescence spectrometer (Cambridge–UK) at 25 °C in a right angle configuration with a 1 cm light path quartz cuvette. The excitation and emission slits were both 5 nm. Data were recorded and graphed using FL WinLab Software (Perkin–Elmer). […] Analyses were performed by nonlinear regression curve fitting using GraphPad Prism 5 (GraphPad Software, Inc, La Jolla, USA).

In experiment [2] the test system is antennae of male and female C. capitata. The experiment can be described thus: Coupled GC–EAG of male volatile extract on medfly antennae. Further details: species or system Ceratitis capitata. The following applies: for EAG response: number of females (F) that showed a positive EAG response: female antennae; for EAG response: number of females (F) that showed a positive EAG response / EAG response: number of males (M) that showed a positive EAG response: in a total of five replicates, GC–EAG; for EAG response: number of males (M) that showed a positive EAG response: male antennae; for electrophysiological (EAG) response, in words: GC–EAG of male volatile extract. The procedure:
Electrical responses to chemical stimuli were recorded from the antennae of both sexes using 4 day-old virgin individuals. Electroantennogram (EAG) recordings were made with Ag–AgCl glass microelectrodes filled with Ringer solution (for 1 L H2O solution: 7.2 g NaCl, 0.37 g KCl, 0.17 g CaCl2, pH 7.3–7.4). The head of a fly (both male and female), anaesthetised by chilling, was excised from the body with a microscalpel and the tip of one of the two arista was cut off with micro-scissors. The indifferent electrode was inserted in the head (from the base to the top-frontal part) and the recording electrode was positioned over the cut arista. Signals were passed through a high impedance amplifier (UN-06, Hilversum, The Netherlands) and analysed using a customised software package (Syntech). […] The oven was maintained at 30 °C for 2 min and then programmed for increments at 5 °C min^−1 to 250 °C. The carrier gas was helium. Outputs from the EAG amplifier and the FID were monitored simultaneously and analysed using the Syntech software package. […] The stimulus (2 s duration) was delivered into a purified airstream (1 l/min) flowing continuously over the preparation using a stimulus controller (Syntech CS02). Samples (10 μl) of the standard solution of test compounds (1 mg/ml in redistilled hexane) were applied in the cartridge. The control stimulus was hexane (10 μl). Five replicates were performed for each sample using antennae from 5 different flies.

The mark [3] stands for this setting: first fraction, ligand 50 μM, 1-NPN 3 μM.
[4] abbreviates: second fraction, ligand 50 μM, 1-NPN 3 μM.

The term Ki denotes the dissociation constant of the complex between target and ligand, obtained from inhibition or displacement.

Each structure is given as a SMILES string. Several values for one entry are separate records, joined by “and”; a condition that tells them apart may be missing. Equal values may be shown once. Read-outs that look alike come from different tables or passages of the source.

Chain of CcapOBP83a-2 (W8W3U3 entry or part of it): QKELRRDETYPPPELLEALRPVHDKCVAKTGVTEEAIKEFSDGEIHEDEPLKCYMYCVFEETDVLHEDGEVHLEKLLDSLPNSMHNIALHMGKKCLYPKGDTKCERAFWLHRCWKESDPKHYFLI

As for `c1ccc2[nH]ccc2c1` [Indole], the “Int (end point fluorescent level): fluorescence intensity after the maximum quantity of chemical was added” value (from here on “Int (end point fluorescent level)”) in experiment [1] (setting [3]) came out at 66.2. The “Int (end point fluorescent level)” value in experiment [1] (setting [4]) turned out to be 60.1. Besides, in experiment [2], the “EAG response: number of females (F) that showed a positive EAG response” value (“EAG response: number of females” below) is “M3F3” and the “EAG response: number of males (M) that showed a positive EAG response” value (“EAG response: number of males” below) is recorded as “M3F3”.

In the case of `CC(C)CCO` [3-Methylbutan-1-ol], in experiment [1], the “Int (end point fluorescent level)” value was 63.4 and 55.6. Also, in experiment [2], the “EAG response: number of females” value is “M4F4” and the “EAG response: number of males” value is “M4F4”.

As for `C=C/C(C)=C/C/C=C(\C)CCC=C(C)C` [(E,E)-α-Farnesene], in experiment [1] (first fraction, 1-NPN 3 μM), the Ki was found to be 6.56 µM. Besides, the “Int (end point fluorescent level)” value in experiment [1] (setting [3]) stood at 34.3. In experiment [1] (second fraction, 1-NPN 3 μM), the IC50 was 1.2 µM; the Ki is 0.1 µM and 0.133 µM. For the same compound, in experiment [1] (setting [4]), the “Int (end point fluorescent level)” value turned out to be 14.4. Besides, in experiment [2], the “electrophysiological (EAG) response, in words” value (from here on “electrophysiological”) is “small responses in both male and female flies”; the “EAG response: number of females” value came to 3; the “EAG response: number of males” value was determined as 2.

Consider `CC(=O)OC/C=C(\C)CCC=C(C)C` [Geranyl acetate], for which, in experiment [1] (setting [3]), the “Int (end point fluorescent level)” value is given as 70.4. Besides, in experiment [1] (second fraction, 1-NPN 3 μM), the IC50 stood at 6.5 µM; the Ki is 0.9 µM and 0.901 µM. Moreover, the “Int (end point fluorescent level)” value in experiment [1] (setting [4]) stood at 17.4. For the same compound, in experiment [2], the “EAG response: number of females” value is 4 and the “EAG response: number of males” value came out at 5.

Regarding `CCCC/C=C/CC(=O)OCC` [Ethyl (E)-3-octenoate], the “Int (end point fluorescent level)” value in experiment [1] (setting [3]) came to 55.6. For the same compound, in experiment [1] (second fraction, 1-NPN 3 μM), the IC50 stood at 18 µM and the Ki worked out at 2.41 µM. For the same compound, the “Int (end point fluorescent level)” value in experiment [1] (setting [4]) was 24.2. In experiment [2], the “EAG response: number of females” value is “M4F4” and the “EAG response: number of males” value is “M4F4”.

In the case of `C=CC(=C)CC/C=C(\C)CCC=C(C)C` [(E)-β-Farnesene, reference compound], the “binding activity, in words” value in experiment [1] (first fraction) was “limited degree of binding”. In addition, the Ki in experiment [1] (first fraction, 1-NPN 3 μM) worked out at 1.4 µM; in experiment [1] (second fraction, 1-NPN 3 μM), 0.2 µM. The results for the “Int (end point fluorescent level)” value in experiment [1] (setting [3]) and in experiment [1] (setting [4]) were 75.1 and 33.6, respectively.

Turning to `OC1COCC1O` (centres unmarked) [Tetrahydro-3,4-furandiol], in experiment [1] (setting [3]), the “Int (end point fluorescent level)” value is reported as 66.2. For the same compound, the “Int (end point fluorescent level)” value in experiment [1] (setting [4]) amounted to 59.9. In experiment [2], the “EAG response: number of females” value was 4 and the “EAG response: number of males” value was 2.

Take `CC1CCOC1=O` (centres unmarked) [Dihydro-3-methyl-2-(3H)-furanone]: in experiment [1] (setting [3]), the “Int (end point fluorescent level)” value is 66.5. In addition, the “Int (end point fluorescent level)” value in experiment [1] (setting [4]) was found to be 58.1. Also, in experiment [2], the “EAG response: number of females” value turned out to be 4 and the “EAG response: number of males” value is recorded as 3.

In the case of `C=CC(=C)CCC=C(C)C` [Myrcene], the “Int (end point fluorescent level)” value in experiment [1] (setting [3]) was found to be 77.5. Moreover, in experiment [1] (second fraction, 1-NPN 3 μM), the IC50 was 10 µM; the inhibition constant (Ki) is 0.9 µM and 0.879 µM. In experiment [1] (setting [4]), the “Int (end point fluorescent level)” value stood at 39.6. Also, in experiment [2], the “electrophysiological” value was “response only on the female antennae”; the “EAG response: number of females” value is given as 4; the “EAG response: number of males” value came to 0.

For `CC1CC(Cl)CCC1C(=O)OC(C)(C)C` (centres unmarked) [Trimedlure, t-Butyl-2-methyl-4-chlorocyclohexanecarboxylate, reference compound], the “Int (end point fluorescent level)” value in experiment [1] (setting [3]) amounted to 66.0. Also, in experiment [1] (second fraction, 1-NPN 3 μM), the IC50 is 2.1 µM; the Ki is 0.3 µM and 0.322 µM. Further, in experiment [1] (setting [4]), the “Int (end point fluorescent level)” value amounted to 9.8.

Turning to `C[C@@H](O)[C@@H](C)O` [(RR)-2,3-Butanediol], the entries for the “Int (end point fluorescent level)” value in experiment [1] (setting [3]) and in experiment [1] (setting [4]) were 62.9 and 58.3, respectively. In addition, the “EAG response: number of females” value in experiment [2] is 3. The “EAG response: number of males” value in experiment [2] amounted to 2.

Take `CCCCCCCC(=O)OCC` [Ethyl octanoate, reference compound]: in experiment [1] (setting [3]), the “Int (end point fluorescent level)” value worked out at 66.3. Moreover, in experiment [1] (second fraction, 1-NPN 3 μM), the IC50 was 15 µM; the Ki was 2 µM and 1.96 µM. Besides, the “Int (end point fluorescent level)” value in experiment [1] (setting [4]) was determined as 26.1.

In the case of `C=C/C(C)=C\CC=C(C)C` [(Z)-Ocimene], the Ki in experiment [1] (first fraction, 1-NPN 3 μM) was 4.52 µM; in experiment [1] (second fraction, 1-NPN 3 μM), 1.9 µM and 1.89 µM. In addition, the “Int (end point fluorescent level)” value in experiment [1] (setting [3]) came out at 49.9; in experiment [1] (setting [4]) it was 23.4. Further, the IC50 in experiment [1] (second fraction, 1-NPN 3 μM) turned out to be 13.5 µM. Also, the “EAG response: number of females” value in experiment [2] is “M4F4”. Also, the “EAG response: number of males” value in experiment [2] is reported as “M4F4”.

Take `CC/C=C/CC(=O)OCC` [Ethyl (E)-3-hexenoate]: the “Int (end point fluorescent level)” value in experiment [1] (setting [3]) was determined as 68.5; in experiment [1] (setting [4]) it was 51.5. Further, the “EAG response: number of females” value in experiment [2] was “M4F4”. The “EAG response: number of males” value in experiment [2] is given as “M4F4”.

Regarding `C=CCc1ccc(OC)c(OC)c1` [Methyleugenol, reference compound], in experiment [1] (setting [3]), the “Int (end point fluorescent level)” value is on record as 61.9. In experiment [1] (second fraction, 1-NPN 3 μM), the IC50 is 43 µM and the Ki came to 4.64 µM. For the same compound, the “Int (end point fluorescent level)” value in experiment [1] (setting [4]) stood at 46.0.

On to `C=CC(C)(O)CCC=C(C)C` (racemic) [(RS)-Linalool], for which the “Int (end point fluorescent level)” value in experiment [1] (setting [3]) is reported as 66.6. Further, in experiment [1] (second fraction, 1-NPN 3 μM), the IC50 was found to be 41 µM and the inhibitory constant (Ki) stood at 6.1 µM. The “Int (end point fluorescent level)” value in experiment [1] (setting [4]) was found to be 44.7. Moreover, in experiment [2], the “EAG response: number of females” value was determined as 3 and the “EAG response: number of males” value is 4.

Take `CCC(C)C(C)=O` (racemic) [(RS)-3-Methylpentan-2-one]: the “Int (end point fluorescent level)” value in experiment [1] (setting [3]) is recorded as 65.3. Besides, the “Int (end point fluorescent level)” value in experiment [1] (setting [4]) was 58.3. Also, in experiment [2], the “electrophysiological” value is “response only on the female antennae”; the “EAG response: number of females” value was found to be 3; the “EAG response: number of males” value stood at 0.

Take `C=C/C(C)=C/CC=C(C)C` [(E)-Ocimene]: the “Int (end point fluorescent level)” value in experiment [1] (setting [3]) came to 66.3. Further, in experiment [1] (second fraction, 1-NPN 3 μM), the IC50 was found to be 50 µM; the Ki was 8.2 µM and 8.17 µM. Besides, in experiment [1] (setting [4]), the “Int (end point fluorescent level)” value stood at 50.7. In experiment [2], the “electrophysiological” value was “response only on the female antennae”; the “EAG response: number of females” value is recorded as 4; the “EAG response: number of males” value is 0.

The record behind these values is paper PMC4003389, “Identification of pheromone components and their binding affinity to the odorant binding protein CcapOBP83a-2 of the Mediterranean fruit fly, Ceratitis capitata” (Insect Biochemistry and Molecular Biology, 2014).
